What was measured:
large milkweed bug = assay: Initial insecticidal activity, milkweed bug; assay type: in vivo, Oncopeltus fasciatus (Dallas); details: Oncopeltus fasciatus, 48-hour exposure, read-out: % Kill, Milkweed Bug
How it was run: (§1)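 Candidate insecticide solutions were sprayed or dipped onto plants or containers, infested before or after treatment depending on species. Mortality was read after a 48-hour exposure, alongside a solvent-only control.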

confused flour beetle = assay: Initial insecticidal activity, confused flour beetle; assay type: in vivo, Tribolium confusum Jacquelin duVal; details: Tribolium confusum, 48-hour exposure, read-out: % Kill, Confused Flour Beetle
How it was run: as §1

pea aphid [1] = assay: Initial insecticidal activity, pea aphid; assay type: in vivo, Acyrthosiphon pisum (Harris); details: Acyrthosiphon pisum, 48-hour exposure, read-out: % Kill, Pea Aphid
How it was run: as §1

twospotted spider mite [2] = assay: Initial insecticidal activity, twospotted spider mite; assay type: in vivo, Tetranychus urticae Koch; details: Tetranychus urticae, 48-hour exposure, read-out: % Kill, Twospotted Spider Mite
How it was run: as §1

plum curculio = assay: Seven-day residual insecticidal activity, plum curculio; assay type: in vivo, Conotrachelus nenuphar (Herbst); details: Conotrachelus nenuphar, 48-hour exposure, read-out: % Kill, Plum Curculio
Excerpt: (§2) b. Seven-Day Residual Insecticidal Activity
(§3) In this test, a candidate insecticide, in solution, is applied to uninfested plants or containers by dipping or spraying. A seven-day holding period is necessary before infestation. A 48-hour exposure period is observed before evaluation of the tests. The insect species used in this type of test are the same as those listed under initial activity.

Mexican bean beetle [3] = assay: Seven-day residual insecticidal activity, Mexican bean beetle; assay type: in vivo, Epilachna varivestis Mulsant; details: Epilachna varivestis, 48-hour exposure, read-out: % Kill, Mexican Bean Beetle
Excerpt: as §2, §3

southern armyworm [4] = assay: Seven-day residual insecticidal activity, southern armyworm; assay type: in vivo, Spodoptera eridania (Cramer); details: Spodoptera eridania, 48-hour exposure, read-out: % Kill, Southern Armyworm
Excerpt: as §2, §3

Mexican bean beetle [5] = assay: Systemic insecticidal activity (soil/water), Mexican bean beetle; assay type: in vivo, Epilachna varivestis Mulsant; details: Epilachna varivestis, 48-hour exposure, read-out: % Kill, Mexican Bean Beetle
How it was run: (§4)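 Compound solution applied to soil of uninfested pinto bean or broad bean seedlings, host chosen by insect species. Usually a 72-hour translocation period preceded infestation, then a 48-hour exposure before evaluation.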

pea aphid [6] = assay: Systemic insecticidal activity (soil/water), pea aphid; assay type: in vivo, Acyrthosiphon pisum (Harris); details: Acyrthosiphon pisum, 48-hour exposure, read-out: % Kill, Pea Aphid
How it was run: as §4

southern armyworm [7] = assay: Systemic insecticidal activity (soil/water), southern armyworm; assay type: in vivo, Spodoptera eridania (Cramer); details: Spodoptera eridania, 48-hour exposure, read-out: % Kill, Southern Armyworm
How it was run: as §4

twospotted spider mite [8] = assay: Systemic insecticidal activity (soil/water), twospotted spider mite; assay type: in vivo, Tetranychus urticae Koch; details: Tetranychus urticae, 48-hour exposure, read-out: % Kill, Twospotted Spider Mite
How it was run: as §4

German cockroaches [9] = assay: Level I immersion test, German cockroaches; assay type: in vivo, Blattella germanica (Linnaeus); details: GC (male), 5 mg/milliliter; for mortality at 5000 µg/mL: Blattella germanica, 18-24 hours, read-out: % Kill; for % Knockdown: 30 minutes after immersion
Experimental: (§5) e. Insecticidal Activity Against House Flies and German Cockroaches
Compounds of this invention were tested in a Level I test at 5 mg. of active compounds/milliliter of a solution of 40% acetone -- 60% water.
In this test a group of ten house flies (Musca domestica Linnaeus) were completely immersed in 25 ml. of the insecticidal test solution. After 10 seconds of immersion, the test solution is removed. The house flies are then transferred to holding cages lines with paper toweling. In the case of the house flies, the knockdown counts were recorded 10 minutes after termination of the immersion. The percent kill was recorded after 18-24 hours.
The same Level I test technique was employed using male German cockroaches [Blattella germanica (Linnaeus)]. In this case, the knockdown counts were recorded 30 minutes after the termination of the immersion.

[10] = system: female house flies (resistant); assay: Level II topical test, house flies; assay type: in vivo, Musca domestica Linnaeus; details: HF (female, resistant), one microgram topically per insect; for % Knockdown: 10 minutes; for mortality at 0.001 mg: Musca domestica, topical, read-out: % Kill
Experimental: as §5
(§6) In a Level II test the compounds of this invention were tested for insecticidal activity against female house flies (resistant) and male German cockroaches. Ten insects were anesthetized with carbon dioxide and placed in a container for about 2 hours, during which time the insects recovered to normal activity. The container confining the insects is fitted with a plunger which is used to force the insects against a nylon mesh at one end of the container. One microliter of an acetone solution containing one microgram of the candidate insecticide was applied topically to each insect. The plunger was withdrawn and the insects were allowed to move freely about the container. Knockdown counts were recorded 10 minutes after treatment of house flies and 30 minutes after treatment of cockroaches.

German cockroaches [11] = assay: Level II topical test, German cockroaches; assay type: in vivo, Blattella germanica (Linnaeus); details: GC (male), one microgram topically per insect; for mortality at 0.001 mg: Blattella germanica, topical, read-out: % Kill; for % Knockdown: 30 minutes
Experimental: as §5, §6

| Structure (SMILES) | mortality at 39 ppm (large milkweed bug) [%] | mortality at 156 ppm (large milkweed bug) [%] | mortality at 1250 ppm (large milkweed bug) [%] | mortality at 39 ppm (confused flour beetle) [%] | mortality at 156 ppm (confused flour beetle) [%] | mortality at 1250 ppm (confused flour beetle) [%] | mortality at 39 ppm (pea aphid [1]) [%] | mortality at 156 ppm (pea aphid [1]) [%] | mortality at 1250 ppm (pea aphid [1]) [%] | mortality at 39 ppm (twospotted spider mite [2]) [%] | mortality at 156 ppm (twospotted spider mite [2]) [%] | mortality at 1250 ppm (twospotted spider mite [2]) [%] | mortality at 39 ppm (plum curculio) [%] | mortality at 156 ppm (plum curculio) [%] | mortality at 1250 ppm (plum curculio) [%] | mortality at 39 ppm (Mexican bean beetle [3]) [%] | mortality at 156 ppm (Mexican bean beetle [3]) [%] | mortality at 1250 ppm (Mexican bean beetle [3]) [%] | mortality at 39 ppm (southern armyworm [4]) [%] | mortality at 156 ppm (southern armyworm [4]) [%] | other results |
| --- | --- | --- | --- | --- | --- | --- | --- | --- | --- | --- | --- | --- | --- | --- | --- | --- | --- | --- | --- | --- | --- |
| CCN(SN(C)C(=O)Oc1cccc2c1OC(C)(C)C2)P(=O)(OC)OC [5(c), 2,3-dihydro-2,2-dimethyl-7-benzofuranyl [(N-dimethoxyphosphinyl) (N-ethyl)aminosulfenyl][methyl]carbamate] | 100 | 100 | 100 | 0 | 0 | 78 | 0 | 100 | 100 | 6 | 47 | 100 | 0 | 0 | 80 | 6 | 70 | 100 | 0 | 0 | mortality at 1250 ppm (southern armyworm [4]): 61%; mortality at 39 ppm (Mexican bean beetle [5]): 100%; mortality at 156 ppm (Mexican bean beetle [5]): 100%; mortality at 39 ppm (pea aphid [6]): 0%; mortality at 156 ppm (pea aphid [6]): 100%; mortality at 39 ppm (southern armyworm [7]): 60%; mortality at 156 ppm (southern armyworm [7]): 100%; mortality at 39 ppm (twospotted spider mite [8]): 7%; mortality at 156 ppm (twospotted spider mite [8]): 24%; mortality at 5000 µg/mL (German cockroaches [9]): 100%; % Knockdown (German cockroaches [9]): 100%; % Knockdown [10]: 0%; mortality at 0.001 mg [10]: 38%; mortality at 0.001 mg (German cockroaches [11]): 0%; % Knockdown (German cockroaches [11]): 0% |
| CC(C)OP(=O)(OC(C)C)N(C)SN(C)C(=O)Oc1cccc2c1OC(C)(C)C2 [6(c), 2,3-Dihydro-2,2-dimethyl-7-benzofuranyl [(N-diisopropoxyphosphinyl) (N-methyl)aminosulfenyl][methyl]carbamate] | 95 | 100 | 100 | 0 | 0 | 18 | 28 | 60 | 100 | 6 | 23 | 100 | 0 | 0 | 100 | 6 | 38 | 100 | 0 | 0 | mortality at 1250 ppm (southern armyworm [4]): 7%; mortality at 39 ppm (Mexican bean beetle [5]): 100%; mortality at 156 ppm (Mexican bean beetle [5]): 100%; mortality at 39 ppm (pea aphid [6]): 100%; mortality at 156 ppm (pea aphid [6]): 100%; mortality at 39 ppm (southern armyworm [7]): 28%; mortality at 156 ppm (southern armyworm [7]): 100%; mortality at 39 ppm (twospotted spider mite [8]): 4%; mortality at 156 ppm (twospotted spider mite [8]): 19%; mortality at 5000 µg/mL (German cockroaches [9]): 100%; % Knockdown (German cockroaches [9]): 100%; % Knockdown [10]: 0%; mortality at 0.001 mg [10]: 27%; mortality at 0.001 mg (German cockroaches [11]): 0%; % Knockdown (German cockroaches [11]): 0% |
| CCOP(=O)(OCC)N(CC)SN(C)C(=O)Oc1cccc2c1OC(C)(C)C2 [8(c), 2,3-Dihydro-2,2-dimethyl-7-benzofuranyl [(N-diethoxyphosphinyl) (N-ethyl)aminosulfenyl][methyl]carbamate] | 100 | 100 | 100 | 0 | 0 | 50 | 0 | 83 | 100 | 5 | 36 | 100 | 0 | 5 | 100 | 12 | 93 | 100 | 0 | 0 | mortality at 1250 ppm (southern armyworm [4]): 43%; mortality at 39 ppm (Mexican bean beetle [5]): 67%; mortality at 156 ppm (Mexican bean beetle [5]): 100%; mortality at 39 ppm (pea aphid [6]): 0%; mortality at 156 ppm (pea aphid [6]): 100%; mortality at 39 ppm (southern armyworm [7]): 20%; mortality at 156 ppm (southern armyworm [7]): 57%; mortality at 39 ppm (twospotted spider mite [8]): 4%; mortality at 156 ppm (twospotted spider mite [8]): 13%; mortality at 5000 µg/mL (German cockroaches [9]): 100%; % Knockdown (German cockroaches [9]): 100%; % Knockdown [10]: 0%; mortality at 0.001 mg [10]: 33%; mortality at 0.001 mg (German cockroaches [11]): 0%; % Knockdown (German cockroaches [11]): 0% |
